Laboratory results published in US20240109937A1, “BINDING PEPTIDES AND USES THEREOF” (The Johns Hopkins University, priority 2021, published 2024).

Tests used:
Assay type in all cases: cell-based, mouse
HL-1 cells [1] = assay: Intracellular Ca2+ (Fluo4 FF fluorescence) in HL-1 cells; conditions: Calcimycin 1 μM in HBS KV medium
Protocol: Calcium (Ca^2+) Overload Protocol: Rapid and sustained intracellular Ca^2+ overload was obtained by adding the Ca^2+-ionophore, calcimycin (1 μM), to HL-1 cells incubated for 10 min in HBS KV medium (1.26 mM CaCl2, 0.81 mM MgSO4, 0.44 mM KH2PO4, 142 mM KCl, 0.27 mM K2HPO4, 5.55 mM D-glucose, 1 mM Na3VO4, 20 mM Hepes pH 7.4). To monitor intracellular Ca^2+ variations, HL-1 cells were loaded with 5 μM Fluo-4 FF AM (Molecular Probes) in HBS Na (Sigma) for 30 min before the media was replaced with HBS KV.

[2] = test system: truncated AIF (tAIF, 57 kDa); assay: Immunoblot of truncated AIF in ISO/Ca2+-treated ES-CMs (chronic CAPN1 inhibition); conditions: Dsg2^mut/mut ES-CMs, 7 days 50 μM ISO/1 μM Ca2+, calpeptin pretreatment
Protocol: Mouse embryonic stem cells (ESs) were maintained and differentiated, and the absence of mycoplasma contamination was confirmed prior to experimental studies. Briefly, mouse ESs from both WT and Dsg2^mut/mut mice were derived from E3.5 embryos and maintained on gelatin-coated dishes in maintenance medium (Glasgow minimum essential medium supplemented with 10% fetal bovine serum and 3 μM Chir99021 and 1 μM PD98059 or 1000 U/ml ESGRO; Millipore), Glutamax, sodium pyruvate, and MEM non-essential amino acids (Thermo Fisher Scientific). For cardiomyocyte (CM) differentiation, ESs were plated in IMDM/Ham's F12 (Cellgro, at 3:1) supplemented with N2, B27, penicillin/streptomycin, 2 mM GlutaMAX, 0.05% BSA, 5 ng/ml L-ascorbic acid (Sigma-Aldrich), and α-monothioglycerol (MTG; Sigma-Aldrich) at a final density of 100,000 cells/ml to allow spheroid formation. After 48 hours, embryoid bodies were collected and transferred to ultra-low attachment plastic surface and induced for 40 hours with Activin A and Bmp4 (R&D Systems). Cells were then dissociated and plated as monolayers for 48 hours in the presence of 10 μM XAV to allow cardiomyocyte differentiation. The resulting ES-CMs were cultured 45 days before experimental procedures were performed.

HL-1 cells [3] = assay: Cell viability assay (LDH release) in HL-1 cells under Ca2+ overload; conditions: Calcimycin 1 μM in HBS KV medium, dose-dependent response
Protocol: Calcium (Ca^2+) Overload Protocol: Rapid and sustained intracellular Ca^2+ overload was obtained by adding the Ca^2+-ionophore, calcimycin (1 μM), to HL-1 cells incubated for 10 min in HBS KV medium (1.26 mM CaCl2, 0.81 mM MgSO4, 0.44 mM KH2PO4, 142 mM KCl, 0.27 mM K2HPO4, 5.55 mM D-glucose, 1 mM Na3VO4, 20 mM Hepes pH 7.4). To monitor intracellular Ca^2+ variations, HL-1 cells were loaded with 5 μM Fluo-4 FF AM (Molecular Probes) in HBS Na (Sigma) for 30 min before the media was replaced with HBS KV. […] Cell Viability Assay: HL-1 plasma membrane integrity was assessed by measuring lactate dehydrogenase (LDH) release in the culture supernatant. An enzymatic assay evaluated LDH activity. Samples of the cell-free culture supernatant were collected at indicated times in Figures/Figure Legends, while cells were lysed in 1% (w/v) Triton X-100 at the end of each experiment to estimate the remaining cellular content of LDH. The LDH activity at each time point was expressed as a percentage of total LDH activity.

HL-1 cells [4] = assay: Mitochondrial membrane potential (JC-1) assay in HL-1 cells; conditions: Calcimycin 1 μM in HBS KV medium
Protocol: Calcium (Ca^2+) Overload Protocol: Rapid and sustained intracellular Ca^2+ overload was obtained by adding the Ca^2+-ionophore, calcimycin (1 μM), to HL-1 cells incubated for 10 min in HBS KV medium (1.26 mM CaCl2, 0.81 mM MgSO4, 0.44 mM KH2PO4, 142 mM KCl, 0.27 mM K2HPO4, 5.55 mM D-glucose, 1 mM Na3VO4, 20 mM Hepes pH 7.4). To monitor intracellular Ca^2+ variations, HL-1 cells were loaded with 5 μM Fluo-4 FF AM (Molecular Probes) in HBS Na (Sigma) for 30 min before the media was replaced with HBS KV. […] Mitochondrial Membrane Potential (MMP) Assay: MMP was determined using the potentiometric probe, JC-1. JC-1 (Molecular Probes) is a cationic carbocyanine dye that selectively accumulates in polarized mitochondria, where it forms red fluorescent aggregates (excitation 485/emission 590 nm). Upon mitochondrial depolarization, JC-1 is released into the cytosol, whereas a monomer emits green fluorescence (excitation 485 nm/emission 520 nm). Therefore, MMP variations were monitored as the ratio of fluorescent emissions at 590/520 nm using a fluorimeter plate reader (Fluoroskan Ascent Labsystem). HL-1 cells were incubated with JC-1 (1.5 μM) for 30 min at 37° C. in HBS Na before treatment protocols.

## CCCC[C@@H](C=O)NC(=O)[C@H](CC(C)C)NC(=O)OCc1ccccc1 [calpeptin]
HL-1 cells [1]
  kinetics of cytosolic Ca2+ accumulation: neither of them had an impact
[2]
  levels of tAIF (57 kDa): significantly lowered
HL-1 cells [3]
  reduction in cell death (LDH release): ~40%
HL-1 cells [4]
  Ca2+ overload-induced decrease in mitochondrial membrane potential (MMP): significantly attenuated
